In EP3925626A1, “LIPOPEPTIDE CONJUGATES AND THEIR SALTS, METHOD OF MANUFACTURE OF LIPOPEPTIDE CONJUGATES AND THEIR SALTS, PHARMACEUTICAL COMPOSITION COMPRISING A LIPOPEPTIDE CONJUGATE AND ITS SALTS FOR THE TREATMENT OF CHRONIC WOUNDS” (priority 2020, dated 2021):
Where two headings read alike, the source gives them in different places. Where a SMILES comes first, the peptide text is derived from it. [ ]: non-standard residue; d: D form. The star is where a group is joined. Hyp = O=C(O)[C@@H]1C[C@@H](O)CN1; Lauroyl = CCCCCCCCCCCC(=O)*

Experiments:
primary fibroblast [1] = format: cell-based
Protocol: (§1) The cytotoxicity of lipopeptide conjugates or their pharmaceutically acceptable salts was assessed in immortalized human cell lines, human primary fibroblast cells independently, separately using two assays, XTT and LDH. Approximately, 5×10^3 fibroblast human cell line BR1N, human primary fibroblast cells or HaCaT cells in 200 µl DMEM supplemented with 10% FCS per well were seeded in 96-well plate and incubated for 24 h (37°C, 5%CO2). Culture medium was replaced with fresh DMEM, and then the cells were exposed to lipopeptide conjugate or its pharmaceutically acceptable salt solutions administered in DMEM at the final concentration in the range from 1 µg mL^-1 to 1000 µg mL^-1. In the experiments, cells in DMEM medium treated with 0.9% solution of Triton X-100 were used as positive control (K+, 100% mortality), untreated cells in DMEM medium were assayed as a negative control (K-). After incubation, cytotoxicity was assessed by measuring the activity of the intracellular cytoplasmic enzyme - lactate dehydrogenase (LDH) and decrease in cell viability measured by a decrease in mitochondria metabolism activity to XTT reduction. The rapidly release of LDH enzyme into the cell culture supernatant is correlated with the plasma membrane damage and cell death. The LDH enzyme release was measured after removal of the supernatant, colorimetrically by incubation with reagent containing 2[4-iodophenyl]-3-[4-nitrophenyl]-5-phenyltetrazolium chloride. The absorbance measured at a wavelenght of 490nm using microplate reader Perkin Elmer spectrophotometer was proportional do LDH activity and the number of damaged cells. The XTT test was performed by adding the XTT solution to each test well. After incubation time at 37°C, the absorbance was measured at a wavelenght of 490nm. Average of absorbance measurements from 3 independent experiments was used to estimate the cell death. The mean absorbance from control wells was considered as 0% (negative control) and 100% (positive control) of cell mortality.

human erythrocytes = format: cell-based
Protocol: Hemolytic activity was determined by incubating 2% suspension of erythrocytes from healthy human blood (n=3)) with serial dilutions of each selected lipopeptide conjugates (at concentration range from 1000µg/mL to 10µg/mL). Fresh erythrocytes were collected by centrifugation for 10 min at 500xg, washed three times with PBS and diluted to a concentration of 2% in PBS. Erythrocytes were incubated with lipopeptide conjugate, but also with 1% Triton X-100 (positive control), in PBS (blank) at 37°C for 1 hour. After incubation, the plates were centrifuged at 500×g for 10 min, and the supernatants were transferred to new clean wells. Release of hemoglobin was measured as the absorbance of the supernatants at a wavelength of 540 nm using microplate reader (Victor PerkinElmer). The relative optical density compared to the suspension treated with 1% Triton X-100 was defined as the percentage of hemolysis. The results present HC10, HC50 defined as the lowest concentration of lipopeptide conjugate that induced 10% and 50% cell lysis, respectively. The novel lipopeptide conjuagtes have a lack of hemolytic activity at the wide range of concentrations in relation to their biological effect. These lipopeptide conjugates induced 10% of cell lysis at concentration range from 0.19 to 1.62 mM (Table 6). […]

primary fibroblast [2] = test: Cytotoxicity, XTT viability assay (MTT in Table 5); format: cell-based, human; conditions: MTT (so in the source), tested 1÷1000 µg/mL; for EC10: 10% decrease in viability
Protocol: as §1

BR1N [3] = test: Cytotoxicity, XTT viability assay (MTT in Table 5); format: cell-based, human; conditions: MTT (so in the source), 10% decrease in viability, tested 1÷1000 µg/mL
Protocol: as §1

HaCaT [4] = test: Cytotoxicity, LDH release assay; format: cell-based, human; conditions: 10% decrease in viability, tested 1÷1000 µg/mL
Protocol: as §1

BR1N [5] = test: Cytotoxicity, LDH release assay; format: cell-based, human; conditions: 10% decrease in viability, tested 1÷1000 µg/mL
Protocol: as §1

HaCaT [6] = test: Cytotoxicity, XTT viability assay (MTT in Table 5); format: cell-based, human; conditions: MTT (so in the source), 10% decrease in viability, tested 1÷1000 µg/mL
Protocol: as §1

primary fibroblast cells = test: In vitro wound healing (closure) assay with IBIDI culture inserts, fibroblast migration; format: cell-based, human
Protocol: In vitro wound healing (closure) assay using IBIDI culture inserts were performed according to literature. Briefly, cell suspension (1,5×10^4) was seeded in Culture-insert 2 well in 70µl of growth medium (DMEM) and cultured for 24 h (37°C, 5%CO2) to form a monolayer. After removal of the Culture-insert, the newly created cell-free gap (wound) was wahed with DMEM followed by PBS. Cell monolayer was also preincubated for 30 min in the presence of mitomycin C (8µg/mL), as a DNA replication and cell proliferation inhibitor. A fresh DMEM and the cells were treated with a pharmaceutical composition containing a lipopeptide conjugate or pharmaceutically acceptable salt and incubated for 24h (37°C, 5%CO2). The cultures in DMEM (K+) was incubated under the same conditions as described above. After overnight incubation, the media was removed, cells were rinsed with sterile PBS and then 1% paraformaldehyde (PFA) was added. After 20 minutes, the cells were washed with PBS and stained with 0.05% crystal violet solution. The stained cells were washed with PBS and then distilled water was added to each well. The wounded areas were visualized microscopically and photographed by microscope (Zeiss). Photographs from the process of human fibroblasts migration after treatment with a pharmaceutical composition containing a lipopeptide conjugate or a pharmaceutically acceptable salt thereof at a given concentration are shown in Figure 7. Cell migration was analyzed using Imaging Software NIS-Elements Basic Research. Alternatively, the migration rate was expressed as the percentage of area reduction (wound closure) compared to the control K. Data of at least independent experiments (n=3) were shown in Figure 4. […] However, lipopeptide conjugates at a concentration of 0.01µg/mL regulated independently both processes, including fibroblast proliferation and migration.
The wound area reduced by 10.3-20.7% as cell migration progresses in comparison to control. This effect was statistically significant. The migration of primary fibroblast cells was enhanced after 24 hours of lipopeptide conjugates treatment. […]

[7] = system: human keratinocyte primary culture; test: Keratinocyte proliferation in the wound closure setting; format: cell-based; conditions: relative to non-stimulated DMEM (K), mean±SD
BALB/c mice = test: In vivo full-thickness excision wound healing; set-up: species or system Mus musculus BALB/c mice; conditions: preparation 0.1% w/w daily d0÷d10 or 4.0% w/w at d0, d3, d7, d10; versus control
Protocol: 8-10 week-old female Mus musculus BALB/c mice (purchased from Tri-City Academic Laboratory Animal Centre-Research nad Services Centre) were used in the study. The experiments were carried out in Tri-City Academic Laboratory Animal Centre - Research and Services Centre according to the approved guidelines of Local Ethics Committee of Animal Experimentation in Bydgoszcz (permit No. 31/2018). Mice were housed under standard conditions, with ad libitum access to food pellets and tap water, and kept under control conditions (22±2°C, relative humidity 55±10%, 12/12 light/darck cycle).
In experiments, mice were divided into groups i.e. control groups (n=6) and experimental groups (n=6). The animals were anesthetized with 3÷5% isoflurane. […] The progress of the wound healing process was assessed according to the defined administration schedule at intervals (d0, d3, d7, d10, d14). […] Wound surfaces were each photographed with a Nikon Coolpix S5100 camera and calculated with the use of Image J. Wound healing (restoration of a full-layer skin) is interpreted as the percentage reduction of the original wound area over time. The process of reepithelization was also assessed, indicating the surface of new epithelium extending. […]

SMILES | EC10 (primary fibroblast [1]) | HC10 (human erythrocytes) [mM] | HC10 (human erythrocytes; red cells of human, 1 h) [µg/mL] | EC10 (primary fibroblast [2]) [µM] | EC10 (BR1N [3]) [µM] | EC10 (HaCaT [4]) [µM] | EC10 (BR1N [5]) [µM] | HC50 (human erythrocytes) [mM] | HC50 (human erythrocytes; red cells of human, 1 h) [µg/mL] | EC10 (HaCaT [6]) [µM] | Percentage wound area reduction observed at (primary fibroblast cells; primary fibroblast cells, tested at 0.01 and 0.10 µg/mL) | Keratinocyte proliferation [n-times of control] ([7]; 0.01 µg/mL) | Keratinocyte proliferation [n-times of control] ([7]; 0.10 µg/mL) | Differences in wound size and coverage of the wound with a new epithelial layer (BALB/c mice) | EC50 (primary fibroblast [2]; 50% decrease in viability) [µM] | concentration that facilitates primary human fibroblast cell migration (primary fibroblast cells; 24 h treatment) [µg/mL] | reduction of the wound surface (primary fibroblast cells; aqueous solution, 0.01 µg/mL, compared to the control, primary human fibroblast cells) [%]
CCCCCCCCCCCC(=O)NCC(=O)N1C[C@H](O)C[C@H]1C(=O)N1C[C@H](O)C[C@H]1C(=O)N[C@@H](CCCCN)C(N)=O [Lipopeptide conjugate 2, N^α-lauroyl-Gly-Hyp-Hyp-Lys-NH2] (Lauroyl-G[Hyp][Hyp]K-NH2) | 409.6 ± 66.9 µM | 0.1858 | 113.4 | 431.2 ± 34.7 | 327.6 ± 40.9 | 346.9 ± 35.0 | 432.8 ± 34.5 |  |  |  |  |  |  |  |  |  | 
CCCCCCCCCCCC(=O)NCC(=O)N1CCC[C@H]1C(=O)N[C@@H](CCCCN)C(N)=O [Lipopeptide conjugate 1] (Lauroyl-Gly-Pro-Lys-NH2) | 890.9±171. 9 µM | 0.2962 | 142.5 |  |  | 537.1 ± 45.3 |  | > 1.0387 | > 500 | 254.1 ± 85.5 | 10-fold increased concentrations | 1.08±0.04 n-times of control | 1.08±0.04 n-times of control | visible from Day 3 |  |  | 
CCCCCCCCCCCC(=O)NCC(=O)N1CCC[C@H]1C(=O)N1C[C@H](O)C[C@H]1C(=O)N[C@@H](CCCCN)C(N)=O [Lipopeptide conjugate 3, N^α-lauroyl-Gly-Pro-Hyp-Lys-NH2] (Lauroyl-GP[Hyp]K-NH2) | 420.6 ± 42.1 µM | 1.6169 | 961.1 | 399.7 ± 35.8 | >504.7 | 171.4 ± 78.3 |  |  |  | 210.2 ± 110.4 |  | 1.29±0.17 n-times of control | 1.34±0.11 n-times of control | visible from Day 3 | 685 ± 138 | < 0.1 | 18.29
